Data as given in publication PMC6135860 (Neuropsychopharmacology, 2018).
Read-outs that look alike come from different tables or passages of the source.

Assays:
[1] = target: T1, humanized mouse PDE4D7 dimer S129D(PKA), Y271F(UCR2) (Mus musculus, UniProt Q01063, S129D/Y271F); assay: biochemical; assay type: biochemical
T1 construct: hexahistidine; Proteos Inc; host or cells: Baculovirus-infected Sf9 insect cells
T1 sequence (Q01063 1-747 S129D/Y271F): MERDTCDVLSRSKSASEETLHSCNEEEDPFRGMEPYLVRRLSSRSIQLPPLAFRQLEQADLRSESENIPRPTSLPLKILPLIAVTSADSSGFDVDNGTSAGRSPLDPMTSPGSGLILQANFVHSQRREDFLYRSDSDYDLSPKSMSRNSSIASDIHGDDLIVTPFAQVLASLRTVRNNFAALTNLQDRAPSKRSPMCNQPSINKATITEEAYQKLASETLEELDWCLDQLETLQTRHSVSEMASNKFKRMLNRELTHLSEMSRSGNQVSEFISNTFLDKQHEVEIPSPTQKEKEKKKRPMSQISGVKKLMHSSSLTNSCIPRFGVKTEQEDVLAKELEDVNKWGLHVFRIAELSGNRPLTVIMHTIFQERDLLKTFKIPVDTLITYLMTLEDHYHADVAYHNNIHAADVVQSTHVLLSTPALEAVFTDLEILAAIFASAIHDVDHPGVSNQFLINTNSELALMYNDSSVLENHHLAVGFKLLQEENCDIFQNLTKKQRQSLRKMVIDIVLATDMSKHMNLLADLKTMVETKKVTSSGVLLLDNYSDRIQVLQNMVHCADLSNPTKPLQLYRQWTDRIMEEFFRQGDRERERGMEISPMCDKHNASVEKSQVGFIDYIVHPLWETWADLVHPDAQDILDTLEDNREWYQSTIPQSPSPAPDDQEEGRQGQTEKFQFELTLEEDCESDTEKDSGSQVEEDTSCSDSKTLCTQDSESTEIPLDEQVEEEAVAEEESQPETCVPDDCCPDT
Protocol: (§3) Kinetic assay of cAMP hydrolysis by purified PDE4 enzymes is measured by coupling the formation of the PDE4 reaction product 5′-adenosine monophosphate (AMP) to the oxidation of reduced nicotinamide adenine dinucleotide (NADH). This is accomplished with three coupling enzymes (yeast myokinase, pyruvate kinase, and lactate dehydrogenase), and allows fluorescent determination of reaction rates [19]. To measure inhibition of PDE4 enzymes by test compounds, data were percent normalized relative to controls and are presented as percent inhibition.
(§4) Kinetic assay of cAMP hydrolysis by purified PDE4 enzymes is measured by coupling the formation of the PDE4 reaction product 5′-adenosine monophosphate (AMP) to the oxidation of reduced nicotinamide adenine dinucleotide (NADH). This is accomplished with three coupling enzymes (yeast myokinase, pyruvate kinase, and lactate dehydrogenase), and allows fluorescent determination of reaction rates.^19 Assays were performed in 96-well plates in a total volume of 200 μl/well. Compounds were dissolved in dimethylsulfoxide (DMSO) and added to plates in a volume of 10 μl followed by addition of 165 μl of assay mix. Plates were pre-incubated at 25 °C for 10 min. The enzyme reaction was initiated by the addition of 25 μl of cAMP followed by thorough mixing. […] Initial rates (slopes) were determined from linear portions of the progress curves. […]

[2] = target: T2, mouse PDE4B3 dimer S133D(PKA) (Mus musculus, UniProt Q8VBU5, S118D); assay: PDE4 kinetic cAMP hydrolysis coupled-enzyme assay; assay type: biochemical
T2 construct: hexahistidine; Proteos Inc; host or cells: Baculovirus-infected Sf9 insect cells
T2 sequence (Q8VBU5 1-721 S118D): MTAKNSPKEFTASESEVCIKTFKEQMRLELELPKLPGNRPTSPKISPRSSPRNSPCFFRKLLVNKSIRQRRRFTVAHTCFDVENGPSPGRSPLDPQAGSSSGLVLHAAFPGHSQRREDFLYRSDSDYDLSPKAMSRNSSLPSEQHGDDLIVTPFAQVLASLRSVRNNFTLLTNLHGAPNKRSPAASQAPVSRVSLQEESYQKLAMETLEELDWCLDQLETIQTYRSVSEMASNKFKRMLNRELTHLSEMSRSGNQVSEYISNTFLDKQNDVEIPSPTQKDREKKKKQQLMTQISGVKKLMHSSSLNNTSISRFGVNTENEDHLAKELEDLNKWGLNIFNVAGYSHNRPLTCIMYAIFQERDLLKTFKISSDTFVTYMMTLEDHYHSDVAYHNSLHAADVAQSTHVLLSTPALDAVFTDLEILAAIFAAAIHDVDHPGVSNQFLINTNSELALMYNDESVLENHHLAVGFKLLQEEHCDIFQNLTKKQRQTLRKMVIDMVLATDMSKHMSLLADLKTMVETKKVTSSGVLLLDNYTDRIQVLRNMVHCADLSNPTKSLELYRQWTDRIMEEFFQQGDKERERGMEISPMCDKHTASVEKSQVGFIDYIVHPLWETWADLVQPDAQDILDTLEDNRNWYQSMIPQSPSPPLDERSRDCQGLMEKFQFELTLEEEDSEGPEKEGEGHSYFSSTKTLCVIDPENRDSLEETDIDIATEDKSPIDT
Protocol: as §3, §4

[3] = target: PDE4 binding sites in wild-type mouse brain membranes; assay: [3H]-rolipram radioligand binding to brain membranes; conditions: wild-type
Protocol: (§5) Mice were killed by decapitation, and the brains were immediately dissected on ice and homogenized in binding buffer using a Polytron homogenizer (Brinkman Instruments, Westbury, NY). The membrane fraction of the homogenate was obtained by centrifugation at 15,000 × g for 15 min, and resuspension of the pellet in the binding buffer.
(§6) Mice were killed by decapitation, and the brains were immediately dissected on ice and homogenized in binding buffer (50 mM Tris-HCl, 5 mM MgCl2, pH 7.5) using a Polytron homogenizer (Brinkman Instruments, Westbury, NY). The membrane fraction of the homogenate was obtained by centrifugation at 15,000 g for 15 min, and resuspension of the pellet in the binding buffer^29.
(§7) At the end of the incubation, reactions were stopped by adding 5 ml of the ice-cold binding buffer and rapid vacuum filtration through glass fiber filters that had been soaked in 0.3% polyethyleneimine. The filters were then washed twice with 5 ml of the ice-cold binding buffer, and discs of filter paper were collected for measurement of radioactivity by liquid scintillation counting.

[4] = target: PDE4 binding sites in humanized PDE4D mouse brain membranes; assay: as above
Protocol: as §5, §6, §7

[5] = system: brain cAMP, humanized PDE4D mice; assay: Brain cAMP ELISA after oral dosing; assay type: in vivo, mouse
Protocol: (§1) On the day of assay, frozen brain samples were analyzed using the cAMP complete ELISA kit (Enzo Life Sciences, Farmingdale, NY) according to the assay protocol.
(§2) Concentrations of cAMP in mouse brain samples were measured using an enzyme-linked immunosorbent assay (ELISA). The mice were treated with various doses of BPN-14770 or vehicle. 1 h after dosing, mice were killed by rapid decapitation, and brains were immediately were dissected on ice, flash frozen in liquid nitrogen, and stored at -80 ̊C. On the day of assay, brain samples (one hemisphere) were ground to a fine powder under liquid nitrogen in a stainless steel mortar, followed by addition of 10 volumes of 0.1 M HCl. Tissue homogenates were then centrifuged at 800ˣg for 15 min. Supernatants were collected for immediate assay or stored frozen for assay later using the cAMP complete ELISA kit (Enzo Life Sciences, Farmingdale, NY) according to the assay protocol ^66.

[6] = system: brain cAMP, wild-type mice; assay: Brain cAMP ELISA after oral dosing; assay type: in vivo, mouse
Protocol: as §1, §2

wild-type mice = assay: Y-maze spontaneous alternation test; assay type: in vivo, mouse; conditions: oral gavage 1 h prior to test
Protocol: (§8) The test consists of a single 5 min trial, in which the mouse was allowed to explore all three arms of the Y-maze [31]. Spontaneous alternation (%) was defined as consecutive entries in three different arms, divided by the number of possible alternations (total arm entries minus 2).
(§9) Y-maze spontaneous alternation test. The Y-maze apparatus made of matt blue Plexiglas had three identical arms (L 40 cm, W 5 cm, H 15 cm) placed at 120° from each other. The test consisted of a single 5 min trial, in which the mouse was allowed to explore all three arms of the Y-maze. The start arm was varied between animals to avoid placement bias. Spontaneous Alternation (%) was defined as consecutive entries in 3 different arms, divided by the number of possible alternations (total arm entries minus 2). Mice with less than 8 arm entries during the 5-min trial were excluded from the analysis.

humanized PDE4D mice [7] = assay: Y-maze spontaneous alternation test; assay type: in vivo, mouse; conditions: humanized PDE4D mice, oral gavage 1 h prior to test
Protocol: as §8, §9

humanized PDE4D mice [8] = assay: Novel object recognition, 24 h inter-trial interval; assay type: in vivo, mouse
Protocol: The novel object recognition test was performed as described elsewhere [32, 33]. Briefly, the task procedure consists of three phases: habituation phase on day 1 for 10 min, training (T1) phase on day 2 for 5 min, and testing (T2) phase on day 3 for 5 min. The duration each animal spent exploring the objects was recorded. Time spent exploring the identical objects in T1 was recorded as a1 and a2; time spent exploring the familiar and the novel objects in T2 was recorded as “a” and “b”, respectively. The following variables were calculated: e1 = a1 + a2, e2 = a + b, the relative discrimination index d2 = (b–a)/e2.
Novel object recognition. Mice were handled for 3-5 min for 5 days in a row. The novel object recognition test was performed in a Plexiglas open field box (L30 cm, W50 cm, H40 cm) as described elsewhere^64,65. Briefly, the task procedure consists of three phases: habituation, training (T1), and testing (T2). In the habituation phase (day 1), each animal is allowed to freely explore the apparatus for 10 min; then the animal is returned to its home cage. During the training phase (day 2), a single animal is placed in the center of the open field containing two identical objects located on the diagonal of the field, and allowed to explore for 5 min. After a retention interval after T1 of 24 h (long-term recall) or 1 h (scopolamine-impairment model), the animal was subjected to the T2 testing phase for 5 min, during which one familiar object and one novel object were presented. The arena and objects were thoroughly wiped with 70% ethanol after each trial to avoid the presence of any olfactory cues. The animals were considered to be exploring the object when directing their nose to the object at a distance of no more than 2 cm and/or touching or sniffing the object. The duration each animal spent exploring the objects was recorded. Time spent exploring the identical objects in T1 was recorded as a1 and a2; time spent exploring the familiar and the novel objects in T2 was recorded as ‘a’ and ‘b’, respectively. The following variables were calculated: e1 = a1 + a2, e2 = a + b, the relative discrimination index d2 = (b – a)/e2.

ICR mice [9] = assay: Antidepressant-like effect models (tail suspension, forced swim); assay type: in vivo, mouse; conditions: Supplementary Figure S3
Text: Data are presented as mean ± S.E.M. (n = 10 male mice); * p < 0.05 and ** p < 0.01 (Student’s t-test) versus vehicle-treated group.

ICR mice [10] = assay: Anxiolytic-like effect models (marble burying, elevated-plus maze); assay type: in vivo, mouse; conditions: Supplementary Figure S4
Text: Data are presented as mean ± S.E.M. (n = 10 male mice); * p < 0.05 and *** p < 0.001 (Student’s t-test) versus vehicle-treated group.

[11] = Pharmacokinetics and plasma exposure in mice

With `O=C(O)Cc1ccc(Cc2cc(-c3cccc(Cl)c3)nc(C(F)(F)F)c2)cc1` [BPN14770] the “increase in potency by mutation of mouse UCR2 tyrosine 271 to phenylalanine” value ([1]; Y271F versus wild-type mouse PDE4D7) was 46 fold, the IC50 ([1]; mouse PDE4D7 dimer, S129D, Y271F (humanized UCR2)) was 2.9 ± 0.3 nM and the IC50 [2] was 2120 ± 527 nM. For the same compound, the Ki ([3]; inhibition of 2 nM [3H]-rolipram binding, read-out: One-site Ki) was 124 ± 14.1 nM, the Ki ([3]; inhibition of [3H]-rolipram binding, read-out: Two-site Ki1) was 79.7 ± 17.1 nM and the Ki ([3]; inhibition of [3H]-rolipram binding, read-out: Two-site Ki2) was 622 ± 110 nM. For the same compound, the Ki ([4]; hPDE4D, inhibition of [3H]-rolipram binding, read-out: Two-site Ki1) was 2.8 ± 1.08 nM, the Ki ([4]; hPDE4D, inhibition of [3H]-rolipram binding, read-out: Two-site Ki2) was 186 ± 19 nM and the Ki ([4]; read-out: One-site Ki) was 82.1 ± 6.03 nM. The “increase in brain cAMP” value ([5]; humanized PDE4D mice, 0.3 mg/kg PO) was “almost three-fold”, the “minimum effective dose (MED) for increase in brain cAMP” value ([5]; humanized mice, 1 h after oral dose) was 0.1 mg/kg PO and the “effect on brain cAMP” value ([6]; 0.3 mg/kg PO) was “ineffective”. The “minimum effective dose (MED) for increase in brain cAMP” value ([6]; 1 h after oral dose) was 1 mg/kg PO, the “MED for improved % alternation in Y-maze” value (wild-type mice) was 1 mg/kg and the “MED for improved % alternation in Y-maze” value (humanized PDE4D mice [7]) was 0.01 mg/kg. For the same compound, the “dose range for effect on neurochemical and cognitive biomarkers” value (humanized PDE4D mice [8]; humanized PDE4D mice) was 0.01–0.03 mg/kg PO, the “greater potency for improving memory in humanized vs wild-type mice” value (humanized PDE4D mice [8]; memory tests overall) was 100 fold and the antidepressant-like effect (ICR mice [9]) was “ineffective”. The anxiolytic-like effect (ICR mice [10]) was “ineffective”, the “plasma exposure at the NOAEL” value ([11]; 1 mg/kg PO, 1 h post dose, data not shown) was 1305 ± 113 ng/mL and the Kp ([11]; C57bl/6, mouse, brain and plasma) was 0.4 to 0.42. The bioavailability ([11]; C57bl/6, mouse, in vivo, po) was 70 to 80% and the half-life ([11]; C57bl/6, mouse, plasma and brain) was 8 to 10 h.
